Values belong to the compound of their own block, whether it stands above or below them. Square brackets hold non-standard residues; d marks the D form. Peptide text beside a SMILES is read from it. NMeF = CN[CH](Cc1ccccc1)C(=O)O
What was measured:
[1] = method code SF-RC, from DOI: 10.1023/a:1015867608405, PMID: 1614980; conditions: pH 7.4
[2] = method code SF, from DOI: 10.1021/jm00169a014, PMID: 2362268; conditions: pH 7.4
[3] = method code SF-AS, from DOI: 10.1016/s0026-895x(25)13330-0, PMID: 3162758; conditions: pH 4.5
[4] = method code SF-AS, from DOI: 10.1021/ja00198a050
[5] = method code SF-HPLC, from DOI: 10.1021/js950484a, PMID: 9002474; conditions: pH 7.4
[6] = not given; remark: listed apart in the source
[7] = method code SF, from DOI: 10.1021/jm950645n, PMID: 8576912
[8] = method code SF-EIA, from DOI: 10.1016/s0022-2275(20)42614-8, PMID: 2280184; conditions: pH 1.0
[9] = method code SF-HPLC, from DOI: 10.1248/cpb.38.1906, PMID: 2268893; conditions: pH 6.9
[10] = method code SF-HPLC, from DOI: 10.1016/j.ejps.2006.07.007, PMID: 16997537; conditions: pH 7.4
[11] = method code SF-RC, from DOI: 10.1021/jm00392a008, PMID: 3625705
[12] = method code SF-AS, from DOI: 10.1111/j.1476-5381.1987.tb08980.x, PMID: 3036289; conditions: pH 7.4
[13] = not given; remark: listed apart in the source
[14] = method code SF-HPLC, from Yao, Y.; Liao, Q.; Zeng, L.; Zhang, L.; Ma, Y.; Zeng, Y. (2009). Determination of the apparent oil-water partition coeffcient of neoandrographolide and effect of pH. Pharmacy Today, 19(10)8-10.; conditions: pH 6.0
[15] = method code SF-RC, from DOI: 10.1016/j.nucmedbio.2016.01.003, PMID: 27067043; conditions: pH 7.4
[16] = not given; remark: listed apart in the source
[17] = method code SF-HPLC, from DOI: 10.1002/jlac.1995199512306
[18] = method code SF-AS, from DOI: 10.1021/jm00371a014, PMID: 6716401; conditions: pH 7.4
[19] = not given; remark: listed apart in the source
[20] = method code SF-HPLC, from Xiong, Ð. (2009). Apparent partiton coefficient of hawthorn leaf flavonoids in phospholipids complex. Chinese Traditional Patent Medicine, 31(7)1075-1078.
[21] = method code SF-HPLC, from DOI: 10.1016/j.ejps.2010.08.004, PMID: 20728535
[22] = not given; remark: listed apart in the source
[23] = method code SF-AS, from Zhang, L.; Fu, G.; Wan, Y. (2014). Determination of verbascoside and its oil-water partition coefficient by ultraviolet spectrophotometry. Shipin Anquan ZhiliangJjiance Xuebao, 5(2)528-532.
[24] = method code SF, from DOI: 10.1021/jm00088a010, PMID: 1350310
[25] = method code SF, from DOI: 10.1016/0006-2952(92)90292-q, PMID: 1371213; conditions: pH 7.4

logD [1]: 2.53
Structure (SMILES): CC(=O)NC(Cc1ccccc1)C(=O)N(C)C(Cc1ccccc1)C(=O)N(C)C(Cc1ccccc1)C(N)=O (stereo unspecified) (Ac-Phe-[NMeF]-[NMeF]-NH2; configuration not given here)

logD [5]: 8.02
Structure (SMILES): CCCCCCCC/C=C\CCCCCCCC(=O)NCc1ccc(O)c(OC)c1

logP: 4
Structure (SMILES): Cc1c(O)cccc1C(=O)N[C@@H](CSc1ccccc1)[C@H](O)CN1C[C@H]2CCCC[C@H]2C[C@H]1C(=O)NC(C)(C)C

logP [6]: 2.8
Structure (SMILES): COC(=O)CC(O)CC(O)C=Cn1c(C(C)C)nc(-c2cccc(Br)c2)c1-c1ccc(F)cc1 (stereo unspecified)

logP [7]: 3.7
Structure (SMILES): C#CCN(Cc1ccc2[nH]c(C)nc(=O)c2c1)c1ccc(C(=O)NCc2cccc([N+](=O)[O-])c2)cc1

logP [13]: 4.79
Structure (SMILES): CCCN(CCC)C(=O)Cc1c(-c2ccc(OC(=O)NCCc3ccc(O)c(O)c3)cc2)nc2c(Cl)cc(Cl)cn12

logD [15]: 2.09
Structure (SMILES): C=CC(=O)NCCCC[C@H](NC(=O)Cc1ccccc1)C(=O)N1CCN(c2cccc(C)n2)CC1

logP [16]: 5.8
Structure (SMILES): CCCCCCCCc1ccc(OCC(=O)Cn2cc(C(C)=O)c3cc(C(=O)O)ccc32)cc1

logP [19]: 1.99
Structure (SMILES): O=C(CCCCCCCCCCn1ccnc1[N+](=O)[O-])Nc1ccc(-c2nc3ccccc3s2)cc1

logP [22]: 2.39
Structure (SMILES): CC(C)C[C@H](NC(=O)Cc1ccc(C(=O)O)c(OCCF)c1)c1ccccc1N1CCCCC1

logP [24]: 3.6
Structure (SMILES): O=C(COc1ccc(OCCNCC(O)COc2ccccc2)cc1)N1CCc2ccccc2C1 (stereo unspecified)

Second part, the compound before the results:

Structure (SMILES): C=C1[C@@H](C)[C@H]2[C@H](Cc3ccccc3)NC(=O)[C@]23OC(=O)/C=C\[C@H](O)CCC[C@@H](C)C/C=C/[C@H]3[C@@H]1O
logD [2]: 3.37

Structure (SMILES): COc1cc([C@@H]2c3cc4c(cc3[C@@H](O[C@@H]3O[C@@H]5CO[C@@H](c6cccs6)O[C@H]5[C@H](O)[C@H]3O)[C@H]3COC(=O)[C@H]23)OCO4)cc(OC)c1O
logD [3]: 1.8

Structure (SMILES): CC(C)(C)c1ccc2c(c1)OCCOCCOCCOCCOCCOCCOCCOCCOCCO2
logP [4]: 1.69

Structure (SMILES): C[C@H](CCC(=O)NCC(=O)O)[C@H]1CC[C@H]2[C@@H]3C[C@H](O)[C@@H]4C[C@H](O)CC[C@]4(C)[C@H]3CC[C@]12C
logD [8]: 2.15

Structure (SMILES): CCOC(=O)OCCC(SC(=O)OCC)=C(C)N(C=O)CC1=C(C(=O)OCOC(=O)C(C)(C)C)N2C(=O)C(NC(=O)C(=NOC)c3csc(N)n3)C2SC1 (stereo unspecified)
logD [9]: 3.34

Structure (SMILES): CCN(CC)C(=O)COC(=O)C1OC(Oc2cc3oc(-c4ccc(O)cc4)cc(=O)c3c(O)c2O)C(O)C(O)C1O (stereo unspecified)
logD [10]: 1.48

Structure (SMILES): CC/C=C\C/C=C\C/C=C\CCCCCCCC(=O)OCC(COC(=O)CCCN)OC(=O)CCCN (stereo unspecified)
logP [11]: 0.33

Structure (SMILES): C[C@@H]1O[C@@H](O[C@H]2C[C@@H](O)[C@]3(CO)[C@H]4[C@H](O)C[C@]5(C)[C@@H]([C@@H]6COC(=O)C6)CC[C@]5(O)[C@@H]4CC[C@]3(O)C2)[C@H](O)[C@H](O)[C@H]1O
logD [12]: -0.7

Structure (SMILES): C=C1CC[C@@H]2[C@](C)(CO[C@@H]3O[C@H](CO)[C@@H](O)[C@H](O)[C@H]3O)CCC[C@@]2(C)[C@@H]1CCC1=CCOC1=O
logD [14]: 0.44

Structure (SMILES): Cc1cn(C2CC(N=[N+]=[N-])C(COP(=O)(OCc3ccc(Cl)cc3)OCC3OC(n4cc(C)c(=O)[nH]c4=O)CC3N=[N+]=[N-])O2)c(=O)[nH]c1=O (stereo unspecified)
logP [17]: 2.06

Structure (SMILES): COc1cccc2c1C(=O)c1c(O)c3c(c(O)c1C2=O)CC(O)(C(C)=O)CC3OC1CC(N2CCOCC2C#N)C(O)C(C)O1 (stereo unspecified)
logD [18]: 2.59

Structure (SMILES): C[C@@H]1O[C@@H](O[C@@H]2[C@@H](O)[C@H](O)[C@@H](CO)O[C@H]2c2c(O)cc(O)c3c(=O)cc(-c4ccc(O)cc4)oc23)[C@H](O)[C@H](O)[C@H]1O
logP [20]: -0.92

Structure (SMILES): CCCCCCCCCCCCCCCCCC(=O)OC[C@@H]1O[C@H](n2ccc(N)nc2=O)CS1
logP [21]: 1.82

Structure (SMILES): C[C@@H]1O[C@@H](OC2[C@@H](O)C(OCCc3ccc(O)c(O)c3)OC(CO)[C@H]2OC(=O)/C=C/c2ccc(O)c(O)c2)[C@H](O)C(O)C1O (stereo partly specified)
logP [23]: -0.57

Structure (SMILES): CN(CC(=O)N[C@@H]1CC[C@@]2(O)[C@H]3Cc4ccc(O)c5c4[C@@]2(CCN3CC2CC2)[C@H]1O5)c1ccc([N+](=O)[O-])c2nonc12
logD [25]: 1
